Results: PubChem BioAssay (NCI)
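Cells were grown in 96-well plates and exposed to each compound for 48 hours at five concentrations; endpoints were interpolated linearly between bracketing concentrations, or set to the highest concentration if not reached. Here, GI50 denotes the concentration required for 50% inhibition of growth. TGI: concentration producing complete growth inhibition.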 Where a SMILES comes first, the peptide text is derived from it. The star is where a group is joined. Boc = CC(C)(C)OC(=O)*; nBu = CCCC*

What was measured:
Experiment in all cases: growth of human tumour cells (NCI), 48 h
[1] = system: SF-539 CNS
[2] = system: U251 CNS
[3] = system: HOP-92 NSCLC
[4] = system: HT29 colon
[5] = system: HOP-62 NSCLC
[6] = system: RPMI-8226 leukemia
[7] = system: COLO 205 colon
[8] = system: HL-60(TB) leukemia
[9] = system: NCI-H522 lung
[10] = system: HCC-2998 colon

Row | Compound | TGI [1] [µM] | TGI [2] [µM] | TGI [3] [µM] | TGI [4] [µM] | TGI [5] [µM] | TGI [6] [µM] | TGI [7] [µM] | TGI [8] [µM] | TGI [9] [µM] | TGI [10] [µM] | GI50 [10] [µM]
1 | N#C/C(=C(/O)CCl)c1nc2ccccc2o1 | 8.74 | 23.8 | 14.5 | 22.5 | 41.9 | 7.87 | 3.45 | 7.04 | – | – | –
2 | CC1(C)OC[C@@H]([C@@]2(COC(c3ccccc3)(c3ccccc3)c3ccccc3)CC=CC(=O)O2)O1 | > 100 | > 100 | 92.1 | > 100 | > 100 | 64.7 | 50.6 | 81.2 | 40.9 | 41 | –
3 | Oc1ccccc1C=Nc1ccc(-c2nc3ccccc3s2)cc1 | > 100 | > 100 | 56.4 | > 100 | 52.2 | > 100 | 40.9 | 91.2 | 54.7 | 45.4 | –
4 | O=C(Cc1nc2ccccc2[nH]c1=O)c1c[nH]c2ccccc12 | 35.2 | 33 | > 100 | 27.3 | 68.2 | > 100 | 28.9 | > 100 | 50 | 41.6 | –
5 | Cc1cc(-c2nc3c(F)cccc3s2)ccc1N | – | > 100 | > 100 | > 100 | > 100 | > 100 | > 100 | > 100 | > 100 | > 100 | > 100
6 | C=C1C(O)C2(O)OCC34C(CC5C(C)=CC(=O)C(O)C5(C)C23)OC(=O)C(OC(=O)C/C=C/CCCCCCCC)C14 (stereo unspecified) | 0.0372 | 0.0227 | 0.0229 | 0.115 | 0.041 | 0.0249 | 0.0464 | 0.2 | 0.0202 | 0.0308 | –
7 | COC(=O)/C=C\C(C#N)(C#N)N=Cc1ccc(OC)cc1 | 11.2 | 35.2 | 4.61 | 22.2 | 33.9 | 2.87 | 3.47 | 5.62 | 2.26 | 41.1 | –
8 | COc1ccc(C2C3CCc4ccccc4C3=NN2S(=O)(=O)c2cccc(C(=O)O)c2OC)cc1 (stereo unspecified) | 22 | 34.9 | > 100 | > 100 | > 100 | 54.7 | 5.6 | > 100 | 14.2 | – | –
9 | CC(C)CC(N)C(=O)NC(C(=O)NC(CCCNC(=N)N)C(=O)NC(CS)C(=O)NC1CSCC(C(=O)NC(Cc2ccccc2)C(=O)NC(C(=O)NC(CCCNC(=N)N)C(=O)O)C(C)C)NC(=O)C2CCCN2C(=O)C(CCCCN)NC(=O)C2CCCN2C(=O)C2CCCN2C(=O)C(Cc2ccc(O)cc2)NC(=O)C(CO)NC(=O)C(CCCCN)NC(=O)C(C(C)O)NC(=O)C(Cc2c[nH]c3ccccc23)NC1=O)C(C)C (stereo unspecified) | > 25 | > 25 | > 25 | > 25 | > 25 | > 25 | > 25 | > 25 | > 25 | – | –
10 | COC(=O)c1c(O)ccc2c1c1cc3ccccc3c(O)c1n2CCc1ccc(OC)c(OC)c1 | > 100 | > 100 | > 100 | 18.6 | > 100 | > 100 | 30.4 | > 100 | > 100 | 86.8 | –
11 | Cc1c(-c2ccccc2)[nH]c2cn[nH]c(=O)c12 | > 100 | > 100 | > 100 | > 100 | > 100 | > 100 | > 100 | > 100 | > 100 | > 100 | –
12 | CCCCOc1ccc(CC(NC(=O)OC(C)(C)C)C(=O)NC(C)C(=O)NC(Cc2ccccc2)C(=O)NCC(N)=O)cc1 (stereo unspecified) (Boc-Y(nBu)AFG-NH2; configuration not given here) | > 100 | > 100 | > 100 | > 100 | > 100 | > 100 | > 100 | > 100 | > 100 | > 100 | –
13 | Cc1ccc(-c2cn3c(nc4ccccc43)c(/C=C/c3ccco3)n2)cc1 | > 100 | > 100 | > 100 | > 100 | > 100 | 67.7 | > 100 | > 100 | – | > 100 | –
14 | C/C(C=O)=C/[C@@]1(C)O[C@@H](C)[C@@](C)(O)[C@@H]1O | > 100 | > 100 | > 100 | > 100 | > 100 | > 100 | > 100 | > 100 | 35.5 | 48.2 | –
15 | C#C[C@]1(O)CC[C@H]2[C@@H]3CCc4cc(O)ccc4[C@H]3CC[C@@]21C | 40.4 | – | 95 | 54.4 | – | – | 92.7 | 94 | 43.5 | 73.8 | –
16 | O=C(Nc1ccccc1)Oc1ccc(C(=S)Nc2ccc(Br)cc2)cc1 | 53 | 56.1 | – | 34.7 | 82.1 | > 100 | 36.6 | 30.3 | 29.5 | 40.8 | –
